Measured values taken from the NIST ThermoML archive (doi:10.1016/j.jct.2006.06.005).

Assays:
[1] = xn = mol fraction of the nth substance listed; conditions: 101 kPa, Liquid
[2] = 101 kPa, Liquid

CN1CCCC1=O [N-methylpyrrolidone] + c1ccccc1
[1]
Conditions	mass density, 303.15 K [kg/m3]	mass density, 313.15 K [kg/m3]	mass density, 323.15 K [kg/m3]	mass density, 333.15 K [kg/m3]	mass density, 343.15 K [kg/m3]	viscosity, 303.15 K [mPa·s]	viscosity, 313.15 K [mPa·s]	viscosity, 323.15 K [mPa·s]	viscosity, 333.15 K [mPa·s]	viscosity, 343.15 K [mPa·s]
x2 = 0	1023.47	1014.55	1005.66	996.71	987.75	1.554	1.332	1.16	1.022	0.908
x2 = 0.1239	1008.67	999.64	990.6	981.51	972.41	1.357	1.163	1.015	0.895	0.797
x2 = 0.2409	993.24	984.1	974.95	965.76	956.53	1.222	1.049	0.915	0.807	0.712
x2 = 0.3523	978.06	968.78	959.51	950.17	940.78	1.102	0.952	0.834	0.735	0.656
x2 = 0.4584	962.87	953.43	943.96	934.42	924.85	0.991	0.858	0.753	0.665	0.593
x2 = 0.5594	947.6	937.99	928.33	918.6	908.82	0.899	0.779	0.684	0.604	0.539
x2 = 0.6557	931.99	922.17	912.31	902.36	892.35	0.809	0.703	0.62	0.548	0.491
x2 = 0.7476	916.33	906.29	896.21	886.02	875.8	0.729	0.636	0.56	0.498	0.447
x2 = 0.8354	900.43	890.16	879.84	869.42	858.93	0.655	0.573	0.505	0.451	0.405
x2 = 0.9195	884.33	873.83	863.26	852.58	841.81	0.585	0.519	0.458	0.41	0.369

c1ccccc1 [benzene] + CN1CCCC1=O
[1], x1 = 1
Conditions	mass density [kg/m3]	viscosity [mPa·s]
303.15 K	868.21	0.561
313.15 K	857.46	0.493
323.15 K	846.65	0.436
333.15 K	835.72	0.388
343.15 K	824.87	0.345

CN1CCCC1=O [N-methylpyrrolidone]
[2]
Conditions	mass density [kg/m3]	viscosity [mPa·s]
303.15 K	1023.47	1.554
313.15 K	1014.55	1.332
323.15 K	1005.66	1.16
333.15 K	996.71	1.022
343.15 K	987.75	0.908
353.15 K	978.76	0.8127

C1CCCCC1 [cyclohexane] + CN1CCCC1=O
[1], x1 = 1
Conditions	mass density [kg/m3]	viscosity [mPa·s]
303.15 K	769.1	0.821
313.15 K	759.6	0.696
323.15 K	749.98	0.598
333.15 K	740.23	0.52

CN1CCCC1=O [N-methylpyrrolidone] + Cc1ccccc1
[1]
Conditions	mass density [kg/m3]	viscosity [mPa·s]
303.15 K, x2 = 0	1023.47	1.554
303.15 K, x2 = 0.1071	1006.98	1.399
303.15 K, x2 = 0.2121	990.67	1.258
303.15 K, x2 = 0.3156	974.42	1.138
303.15 K, x2 = 0.4177	958.02	1.021
303.15 K, x2 = 0.5185	941.54	0.923
303.15 K, x2 = 0.6174	925	0.822
303.15 K, x2 = 0.7151	907.95	0.727
303.15 K, x2 = 0.8114	890.99	0.65
303.15 K, x2 = 0.9064	874.21	0.566
313.15 K, x2 = 0	1014.55	1.332
313.15 K, x2 = 0.1071	998.03	1.21
313.15 K, x2 = 0.2121	981.67	1.088
313.15 K, x2 = 0.3156	965.37	0.991
313.15 K, x2 = 0.4177	948.91	0.89
313.15 K, x2 = 0.5185	932.4	0.803
313.15 K, x2 = 0.6174	915.81	0.719
313.15 K, x2 = 0.7151	898.7	0.642
313.15 K, x2 = 0.8114	881.69	0.575
313.15 K, x2 = 0.9064	864.87	0.516
323.15 K, x2 = 0	1005.66	1.16
323.15 K, x2 = 0.1071	989.08	1.061
323.15 K, x2 = 0.2121	972.67	0.956
323.15 K, x2 = 0.3156	956.3	0.87
323.15 K, x2 = 0.4177	939.78	0.783
323.15 K, x2 = 0.5185	923.24	0.71
323.15 K, x2 = 0.6174	906.6	0.639
323.15 K, x2 = 0.7151	889.42	0.572
323.15 K, x2 = 0.8114	872.36	0.514
323.15 K, x2 = 0.9064	855.48	0.463
333.15 K, x2 = 0	996.71	1.022
333.15 K, x2 = 0.1071	980.08	0.932
333.15 K, x2 = 0.2121	963.63	0.844
333.15 K, x2 = 0.3156	947.17	0.766
333.15 K, x2 = 0.4177	930.61	0.695
333.15 K, x2 = 0.5185	914.01	0.632
333.15 K, x2 = 0.6174	897.3	0.57
333.15 K, x2 = 0.7151	880.06	0.514
333.15 K, x2 = 0.8114	862.94	0.463
333.15 K, x2 = 0.9064	845.99	0.418
343.15 K, x2 = 0	987.75	0.908
343.15 K, x2 = 0.1071	971.08	0.844
343.15 K, x2 = 0.2121	954.56	0.751
343.15 K, x2 = 0.3156	938.03	0.683
343.15 K, x2 = 0.4177	921.4	0.622
343.15 K, x2 = 0.5185	904.74	0.566
343.15 K, x2 = 0.6174	887.95	0.518
343.15 K, x2 = 0.7151	870.65	0.464
343.15 K, x2 = 0.8114	853.44	0.418
343.15 K, x2 = 0.9064	836.42	0.379
353.15 K, x2 = 0	978.76	0.8127
353.15 K, x2 = 0.1071	962	0.7651
353.15 K, x2 = 0.2121	945.42	0.6769
353.15 K, x2 = 0.3156	928.81	0.617
353.15 K, x2 = 0.4177	912.13	0.5616
353.15 K, x2 = 0.5185	895.4	0.513
353.15 K, x2 = 0.6174	878.51	0.464
353.15 K, x2 = 0.7151	861.11	0.422
353.15 K, x2 = 0.8114	843.83	0.381
353.15 K, x2 = 0.9064	826.71	0.347

Cc1ccccc1 [toluene]
[2]
Conditions	mass density [kg/m3]	viscosity [mPa·s]
303.15 K	858.32	0.525
313.15 K	848.92	0.47
323.15 K	839.45	0.423
333.15 K	829.93	0.385
343.15 K	820.3	0.35
353.15 K	810.54	0.323

CN1CCCC1=O [N-methylpyrrolidone] + C1CCCCC1
[1]
Conditions	mass density, 303.15 K [kg/m3]	mass density, 313.15 K [kg/m3]	mass density, 323.15 K [kg/m3]	mass density, 333.15 K [kg/m3]	viscosity, 303.15 K [mPa·s]	viscosity, 313.15 K [mPa·s]	viscosity, 323.15 K [mPa·s]	viscosity, 333.15 K [mPa·s]
x2 = 0	1023.47	1014.55	1005.66	996.71	1.554	1.332	1.16	1.022
x2 = 0.1157	989.9	980.96	972.02	963.06	1.394	1.206	1.056	0.931
x2 = 0.2275	958.38	949.41	940.41	931.37	1.28	1.106	0.965	0.854
x2 = 0.3355	928.85	919.78	910.71	901.57	1.194	1.032	0.9	0.791
x2 = 0.4398	901.35	892.21	883.02	873.78	1.132	0.973	0.843	0.739
x2 = 0.5409	875.71	866.43	857.14	847.77	1.073	0.92	0.791	0.692
x2 = 0.6386	851.53	842.17	832.77	823.29	1.011	0.866	0.746	0.648
x2 = 0.7332	828.73	819.29	809.79	800.2	0.953	0.813	0.699	0.608
x2 = 0.8249	807.41	797.92	788.36	778.69	0.895	0.76	0.655	0.573
x2 = 0.9138	787.37	777.85	768.22	758.49	0.843	0.72	0.623	0.544

C1CCCCC1 [cyclohexane]
[2]
Conditions	mass density [kg/m3]	viscosity [mPa·s]
303.15 K	769.1	0.821
313.15 K	759.6	0.696
323.15 K	749.98	0.598
333.15 K	740.23	0.52

Cc1ccccc1 [toluene] + CN1CCCC1=O
[1], x1 = 1
Conditions	mass density [kg/m3]	viscosity [mPa·s]
303.15 K	858.32	0.525
313.15 K	848.92	0.47
323.15 K	839.45	0.423
333.15 K	829.93	0.385
343.15 K	820.3	0.35
353.15 K	810.54	0.323

c1ccccc1 [benzene]
[2]
Conditions	mass density [kg/m3]	viscosity [mPa·s]
303.15 K	868.21	0.561
313.15 K	857.46	0.493
323.15 K	846.65	0.436
333.15 K	835.72	0.388
343.15 K	824.87	0.345
